According to US5760241A, “Thiol derivatives with metallopeptidase inhibitory activity” (priority 1996, dated 1998):

Target: T1, ACE (purified by lung rabbit, EC 3.4.15.1) (Oryctolagus cuniculus, UniProt P12822)
T1 construct: purchased SIGMA; host or cells: rabbit lung
T1 sequence (P12822 34-1310): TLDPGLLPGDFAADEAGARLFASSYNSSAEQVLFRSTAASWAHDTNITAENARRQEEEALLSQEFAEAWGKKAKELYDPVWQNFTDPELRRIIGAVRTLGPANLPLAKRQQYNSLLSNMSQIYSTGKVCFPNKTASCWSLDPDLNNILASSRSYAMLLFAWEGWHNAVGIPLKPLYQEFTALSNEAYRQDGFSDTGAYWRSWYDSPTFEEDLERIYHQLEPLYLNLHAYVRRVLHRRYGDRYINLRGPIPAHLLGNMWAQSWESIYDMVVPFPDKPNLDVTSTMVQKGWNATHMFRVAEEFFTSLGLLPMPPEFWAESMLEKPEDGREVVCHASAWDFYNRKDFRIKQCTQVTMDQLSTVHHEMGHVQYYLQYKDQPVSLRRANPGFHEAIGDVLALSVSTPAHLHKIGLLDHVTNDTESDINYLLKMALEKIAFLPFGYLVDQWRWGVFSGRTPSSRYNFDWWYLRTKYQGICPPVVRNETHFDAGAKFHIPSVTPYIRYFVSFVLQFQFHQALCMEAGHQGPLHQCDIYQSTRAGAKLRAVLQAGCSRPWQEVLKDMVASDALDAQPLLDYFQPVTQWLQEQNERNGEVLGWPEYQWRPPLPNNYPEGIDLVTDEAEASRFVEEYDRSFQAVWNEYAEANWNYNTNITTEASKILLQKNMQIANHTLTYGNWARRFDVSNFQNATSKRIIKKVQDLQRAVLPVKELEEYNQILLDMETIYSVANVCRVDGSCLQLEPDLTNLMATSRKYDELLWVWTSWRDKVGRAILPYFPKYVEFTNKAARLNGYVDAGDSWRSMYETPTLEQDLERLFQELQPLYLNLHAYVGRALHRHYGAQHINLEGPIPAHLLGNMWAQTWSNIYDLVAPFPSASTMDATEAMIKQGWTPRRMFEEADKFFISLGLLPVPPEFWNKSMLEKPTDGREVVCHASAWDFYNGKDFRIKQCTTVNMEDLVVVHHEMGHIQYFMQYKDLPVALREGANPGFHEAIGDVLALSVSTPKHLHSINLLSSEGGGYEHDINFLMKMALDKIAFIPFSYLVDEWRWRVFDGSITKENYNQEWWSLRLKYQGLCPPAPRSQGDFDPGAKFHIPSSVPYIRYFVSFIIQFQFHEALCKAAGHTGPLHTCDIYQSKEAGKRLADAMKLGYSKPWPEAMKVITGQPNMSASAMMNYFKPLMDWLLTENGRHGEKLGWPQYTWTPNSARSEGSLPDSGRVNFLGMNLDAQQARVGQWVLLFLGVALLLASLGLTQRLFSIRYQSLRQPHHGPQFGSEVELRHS
Experiment: In vitro ACE-inhibitory activity (FAPGG substrate, spectrophotometric)
Type: biochemical
Details: 37° C.; FAPGG 0.8 mM
Protocol: b) ACE-inhibitory activity
The ACE-inhibitory activity was evaluated according to the method reported in the literature by B. Holmquist et al., in Analytical Biochemistry 95, 540-548 (1979).
[…] of ACE (250 mU/ml purified by lung rabbit, EC 3.4.15.1 SIGMA) were preincubated with 50 μl of the compound of formula I or of the comparison compound in thermostated cuvettes at 37° C.
The reaction was started by adding furylacryloylphenylalanylglycylglycine 0.8 mM (FAPGG-SIGMA).
Contemporaneously, by using a Beckman DU-50 spectrophotometer provided with a program for calculating delta A/minutes and regression coefficients of the enzyme kinetics curves, the absorbance at 340 nm was recorded in continuo for 5 minutes.
The percentage of the enzyme inhibition in the preparations treated with the compounds of formula I or with the comparative compounds with respect to the untreated preparations was expressed as IC50 (nM) value.

## O=C(N[C@@H](Cc1ccc(-c2ccccc2)cc1)C(=O)O)C(CS)Cc1ccccc1 (stereo partly shown) [compound 41]
  IC50: 5 nM
